In ChEMBL document CHEMBL4321867, “Optimization of LpxC Inhibitor Lead Compounds Focusing on Efficacy and Formulation for High Dose Intravenous Administration” (J Med Chem, 2020):
Converted amounts (≈) assume the structure as drawn.

Experiments:
Pseudomonas aeruginosa = test: microbe, parasite or virus in culture; conditions: ATCC 27853
physchem [1] = test: physchem
physchem [2] = conditions: buffer, pH 9
physchem [3] = conditions: n-octanol/phosphate buffer, pH 7.4
physchem [4] = conditions: buffer, pH 7
Klebsiella pneumoniae = test: microbe, parasite or virus in culture; conditions: T6474
[5] = test system: T1, UDP-3-O-acyl-N-acetylglucosamine deacetylase (Escherichia coli K-12), P0A725 [C125S]; conditions: 25 uM
T1 sequence (whole entry): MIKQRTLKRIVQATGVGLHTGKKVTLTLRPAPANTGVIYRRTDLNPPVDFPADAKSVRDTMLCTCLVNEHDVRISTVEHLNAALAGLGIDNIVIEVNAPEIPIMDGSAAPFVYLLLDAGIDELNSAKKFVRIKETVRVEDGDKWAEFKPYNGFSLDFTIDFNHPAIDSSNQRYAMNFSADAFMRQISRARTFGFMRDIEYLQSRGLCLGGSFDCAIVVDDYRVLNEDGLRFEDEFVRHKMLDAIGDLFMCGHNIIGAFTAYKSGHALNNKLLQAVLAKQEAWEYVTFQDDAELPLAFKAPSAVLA

physchem [6] = conditions: buffer, pH 4
Escherichia coli = test: microbe, parasite or virus in culture; conditions: ATCC 25922
[7] = test system: T2, UDP-3-O-acyl-N-acetylglucosamine deacetylase (Pseudomonas aeruginosa (strain ATCC 15692 / PAO1 / 1C / PRS 101 / LMG12228)), P47205 [C40S]; conditions: 25 uM
T2 sequence (whole entry): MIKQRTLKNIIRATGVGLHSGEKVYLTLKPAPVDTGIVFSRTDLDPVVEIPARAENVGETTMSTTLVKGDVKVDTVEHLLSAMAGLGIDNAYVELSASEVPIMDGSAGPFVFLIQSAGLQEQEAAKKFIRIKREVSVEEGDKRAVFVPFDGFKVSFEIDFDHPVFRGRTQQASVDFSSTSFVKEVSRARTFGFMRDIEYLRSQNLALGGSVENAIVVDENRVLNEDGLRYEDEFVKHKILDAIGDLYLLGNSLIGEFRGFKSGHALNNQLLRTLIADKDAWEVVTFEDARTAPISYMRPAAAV

## CN1CCC(C#CC#Cc2cc3n(c2)C(=O)N(CC[C@](C)(C(=O)NO)S(C)(=O)=O)C3)CC1
Pseudomonas aeruginosa
  MIC: 1 µg/mL (≈ 2.17 µM)
Physchem [1]
  pKa: 9
Physchem [2]
  solubility at 24 h: 574 µg/mL (≈ 1250 µM)
Physchem [3]
  logD: 0.2
Physchem [4]
  solubility at 24 h: > 780 µg/mL
Klebsiella pneumoniae
  MIC: 4 µg/mL (≈ 8.69 µM)
[5]
  deltaTm: 10.6 K
Physchem [6]
  solubility at 24 h: > 780 µg/mL
Escherichia coli
  MIC: 4 µg/mL (≈ 8.69 µM)
[7]
  deltaTm: 11.3 K

## C[C@@](CCN1Cc2cc(C#CC#CC3(F)CNC3)cn2C1=O)(C(=O)NO)S(C)(=O)=O
Pseudomonas aeruginosa
  MIC: 2 µg/mL (≈ 4.58 µM)
Physchem [1]
  pKa: 8
Physchem [2]
  solubility at 24 h: 279 µg/mL (≈ 639 µM)
Physchem [3]
  logD: 0.3
Physchem [4]
  solubility at 24 h: 175 µg/mL (≈ 401 µM)
Klebsiella pneumoniae
  MIC: 2 µg/mL (≈ 4.58 µM)
[5]
  deltaTm: 7.1 K
Physchem [6]
  solubility at 24 h: > 740 µg/mL
Escherichia coli
  MIC: 1 µg/mL (≈ 2.29 µM)
[7]
  deltaTm: 10 K

## CN1CCC(F)(C#CC#Cc2cc3n(c2)C(=O)N(CC[C@](C)(C(=O)NO)S(C)(=O)=O)C3)CC1
Pseudomonas aeruginosa
  MIC: 1 µg/mL (≈ 2.09 µM)
Physchem [1]
  pKa: 8
Physchem [2]
  solubility at 24 h: 203 µg/mL (≈ 424 µM)
Physchem [3]
  logD: 1
Physchem [4]
  solubility at 24 h: 384 µg/mL (≈ 802 µM)
Klebsiella pneumoniae
  MIC: 1 µg/mL (≈ 2.09 µM)
[5]
  deltaTm: 9.6 K
Physchem [6]
  solubility at 24 h: > 810 µg/mL
Escherichia coli
  MIC: 0.5 µg/mL (≈ 1.04 µM)
[7]
  deltaTm: 12 K

## CC(=O)N1CC(C#CC#Cc2cc3n(c2)C(=O)N(CC[C@](C)(C(=O)NO)S(C)(=O)=O)C3)C1
Pseudomonas aeruginosa
  MIC: 1 µg/mL (≈ 2.17 µM)
Physchem [2]
  solubility at 24 h: > 780 µg/mL
Physchem [3]
  logD: 0.3
Physchem [4]
  solubility at 24 h: > 780 µg/mL
Klebsiella pneumoniae
  MIC: 1 µg/mL (≈ 2.17 µM)
[5]
  deltaTm: 9.7 K
Physchem [6]
  solubility at 24 h: > 780 µg/mL
Escherichia coli
  MIC: 1 µg/mL (≈ 2.17 µM)
[7]
  deltaTm: 12.4 K

## CCN1CC(C#CC#Cc2cc3n(c2)C(=O)N(CC[C@](C)(C(=O)NO)S(C)(=O)=O)C3)C1
Pseudomonas aeruginosa
  MIC: 0.5 µg/mL (≈ 1.12 µM)
Physchem [1]
  pKa: 8.5
Physchem [2]
  solubility at 24 h: > 750 µg/mL
Physchem [3]
  logD: 0.6
Physchem [4]
  solubility at 24 h: > 750 µg/mL
Klebsiella pneumoniae
  MIC: 0.5 µg/mL (≈ 1.12 µM)
[5]
  deltaTm: 9.3 K
Physchem [6]
  solubility at 24 h: > 750 µg/mL
Escherichia coli
  MIC: 0.25 µg/mL (≈ 0.56 µM)
[7]
  deltaTm: 10.4 K

## C[C@@](CCN1Cc2cc(C#CC#CC3CN(C4COC4)C3)cn2C1=O)(C(=O)NO)S(C)(=O)=O
Pseudomonas aeruginosa
  MIC: 1 µg/mL (≈ 2.11 µM)
Physchem [1]
  pKa: 5.5
Physchem [2]
  solubility at 24 h: 681 µg/mL (≈ 1440 µM)
Physchem [3]
  logD: 0.5
Physchem [4]
  solubility at 24 h: 128 µg/mL (≈ 270 µM)
Klebsiella pneumoniae
  MIC: 0.5 µg/mL (≈ 1.05 µM)
[5]
  deltaTm: 10.5 K
Physchem [6]
  solubility at 24 h: > 800 µg/mL
Escherichia coli
  MIC: 0.25 µg/mL (≈ 0.527 µM)
[7]
  deltaTm: 12.6 K

## C[C@@](CCN1Cc2cc(C#CC#CC3CN(CC(F)F)C3)cn2C1=O)(C(=O)NO)S(C)(=O)=O
Pseudomonas aeruginosa
  MIC: 1 µg/mL (≈ 2.07 µM)
Physchem [1]
  pKa: 5.2
Physchem [2]
  solubility at 24 h: > 820 µg/mL
Physchem [3]
  logD: 1.4
Physchem [4]
  solubility at 24 h: 209 µg/mL (≈ 433 µM)
Klebsiella pneumoniae
  MIC: 0.25 µg/mL (≈ 0.518 µM)
[5]
  deltaTm: 10.6 K
Physchem [6]
  solubility at 24 h: > 820 µg/mL
Escherichia coli
  MIC: 0.06 µg/mL (≈ 0.124 µM)
[7]
  deltaTm: 13.2 K

## C[C@@](CCN1Cc2cc(C#CC#CC3CNC3)cn2C1=O)(C(=O)NO)S(C)(=O)=O
Pseudomonas aeruginosa
  MIC: 1 µg/mL (≈ 2.39 µM)
Physchem [1]
  pKa: 9.4
Physchem [2]
  solubility at 24 h: > 710 µg/mL
Physchem [3]
  logD: -1
Physchem [4]
  solubility at 24 h: > 710 µg/mL
Klebsiella pneumoniae
  MIC: 4 µg/mL (≈ 9.56 µM)
[5]
  deltaTm: 8 K
Physchem [6]
  solubility at 24 h: > 710 µg/mL
Escherichia coli
  MIC: 8 µg/mL (≈ 19.1 µM)
[7]
  deltaTm: 9.3 K

## CN1CC(C#CC#Cc2cc3n(c2)C(=O)N(CC[C@](C)(C(N)=O)S(C)(=O)=O)C3)C1
Pseudomonas aeruginosa
  MIC: > 32 µg/mL
Physchem [1]
  pKa: 8.4
Physchem [2]
  solubility at 24 h: 92 µg/mL (≈ 221 µM)
Physchem [3]
  logD: 0.5
Physchem [4]
  solubility at 24 h: 706 µg/mL (≈ 1700 µM)
Klebsiella pneumoniae
  MIC: > 32 µg/mL
[5]
  deltaTm: 0 K
Physchem [6]
  solubility at 24 h: > 700 µg/mL
Escherichia coli
  MIC: > 32 µg/mL
[7]
  deltaTm: 0.3 K

## CN1CC(F)(C#CC#Cc2cc3n(c2)C(=O)N(CC[C@](C)(C(=O)NO)S(C)(=O)=O)C3)C1
Pseudomonas aeruginosa
  MIC: 2 µg/mL (≈ 4.44 µM)
Physchem [1]
  pKa: 6.7
Physchem [2]
  solubility at 24 h: > 760 µg/mL
Physchem [3]
  logD: 1.1
Physchem [4]
  solubility at 24 h: 219 µg/mL (≈ 486 µM)
Klebsiella pneumoniae
  MIC: 0.5 µg/mL (≈ 1.11 µM)
[5]
  deltaTm: 8.1 K
Physchem [6]
  solubility at 24 h: > 760 µg/mL
Escherichia coli
  MIC: 0.12 µg/mL (≈ 0.266 µM)
[7]
  deltaTm: 11.6 K

## CN(C)C1(C#CC#Cc2cc3n(c2)C(=O)N(CC[C@](C)(C(=O)NO)S(C)(=O)=O)C3)CC1
Pseudomonas aeruginosa
  MIC: 0.5 µg/mL (≈ 1.12 µM)
Physchem [1]
  pKa: 5.5
Physchem [2]
  solubility at 24 h: 95 µg/mL (≈ 213 µM)
Physchem [3]
  logD: 2.1
Physchem [4]
  solubility at 24 h: 15 µg/mL (≈ 33.6 µM)
Klebsiella pneumoniae
  MIC: 0.5 µg/mL (≈ 1.12 µM)
[5]
  deltaTm: 11.6 K
Physchem [6]
  solubility at 24 h: 412 µg/mL (≈ 923 µM)
Escherichia coli
  MIC: 0.25 µg/mL (≈ 0.56 µM)
[7]
  deltaTm: 13.4 K

## C[C@@](CCN1Cc2cc(C#CC#CC3(CN)CC3)cn2C1=O)(C(=O)NO)S(C)(=O)=O
Pseudomonas aeruginosa
  MIC: 16 µg/mL (≈ 37 µM)
Physchem [1]
  pKa: 9.2
Physchem [2]
  solubility at 24 h: > 730 µg/mL
Physchem [3]
  logD: -0.4
Physchem [4]
  solubility at 24 h: 552 µg/mL (≈ 1280 µM)
Klebsiella pneumoniae
  MIC: 16 µg/mL (≈ 37 µM)
[5]
  deltaTm: 9.6 K
Physchem [6]
  solubility at 24 h: > 730 µg/mL
Escherichia coli
  MIC: 8 µg/mL (≈ 18.5 µM)
[7]
  deltaTm: 10.7 K

## CNC1(C#CC#Cc2cc3n(c2)C(=O)N(CC[C@](C)(C(=O)NO)S(C)(=O)=O)C3)CC1
Pseudomonas aeruginosa
  MIC: 0.5 µg/mL (≈ 1.16 µM)
Physchem [1]
  pKa: 6.5
Physchem [2]
  solubility at 24 h: 486 µg/mL (≈ 1120 µM)
Physchem [3]
  logD: 1.4
Physchem [4]
  solubility at 24 h: 182 µg/mL (≈ 421 µM)
Klebsiella pneumoniae
  MIC: 0.25 µg/mL (≈ 0.578 µM)
[5]
  deltaTm: 10.6 K
Physchem [6]
  solubility at 24 h: 551 µg/mL (≈ 1270 µM)
Escherichia coli
  MIC: 0.12 µg/mL (≈ 0.277 µM)
[7]
  deltaTm: 12.2 K

## C[C@@](CCN1Cc2cc(C#CC#CC3CCN(C4COC4)CC3)cn2C1=O)(C(=O)NO)S(C)(=O)=O
Pseudomonas aeruginosa
  MIC: 2 µg/mL (≈ 3.98 µM)
Physchem [1]
  pKa: 6.2
Physchem [2]
  solubility at 24 h: > 850 µg/mL
Physchem [3]
  logD: 1.1
Physchem [4]
  solubility at 24 h: 329 µg/mL (≈ 655 µM)
Klebsiella pneumoniae
  MIC: 1 µg/mL (≈ 1.99 µM)
[5]
  deltaTm: 11.1 K
Physchem [6]
  solubility at 24 h: > 850 µg/mL
Escherichia coli
  MIC: 0.5 µg/mL (≈ 0.995 µM)
[7]
  deltaTm: 13.2 K

## CC(C)N1CC(C#CC#Cc2cc3n(c2)C(=O)N(CC[C@](C)(C(=O)NO)S(C)(=O)=O)C3)C1
Pseudomonas aeruginosa
  MIC: 0.5 µg/mL (≈ 1.09 µM)
Physchem [1]
  pKa: 8.3
Physchem [2]
  solubility at 24 h: 420 µg/mL (≈ 912 µM)
Physchem [3]
  logD: 1
Physchem [4]
  solubility at 24 h: 398 µg/mL (≈ 864 µM)
Klebsiella pneumoniae
  MIC: 0.25 µg/mL (≈ 0.543 µM)
[5]
  deltaTm: 9.6 K
Physchem [6]
  solubility at 24 h: > 780 µg/mL
Escherichia coli
  MIC: 0.25 µg/mL (≈ 0.543 µM)
[7]
  deltaTm: 11.2 K
